Reference: patent US20180188224A1, “METHOD FOR CONSTRUCTING A SENSORY SPACE” (CENTRE SCIENTIFIQUE ET TECHNIQUE DU BATIMENT (CSTB), priority 2015, published 2018)

System: four non-smoking volunteers (2 men and 2 women)
Test: Taste identification questionnaire, trained panel (count of 6 repetitions per subject in which the stimulus was given each taste label; level of recognition %)
Type: in vivo, human
Conditions: for Level of Recognition %: Bitter / Level of Recognition %: Neutral / Level of Recognition %: Salty / Level of Recognition %: Sour / Level of Recognition %: Sweet: four subjects
Procedure: In this test, four non-smoking volunteers (2 men and 2 women) were chosen from 12 people for their performance in taste recognition. Their mean age was 32 years, ranging from 24 to 40 years. […] These four people were trained for several months to recognize and detect the four basic tastes, and also regarding the procedures of sensory and physiological analysis.
The four basic tastes (sweet, salty, sour and bitter) were used. The solutions were prepared with citric acid for the sour taste, caffeine for the bitter taste, sodium chloride for the salty taste and sucrose for the sweet taste (all purchased from Sigma Aldrich, France) in Evian water. Evian water was also used as control and blank. Each taste was prepared with the four concentrations mentioned in table 1.
The amount of solution to be tested was standardized at 10 ml. In order to impregnate the whole of the oral cavity, the subjects kept the solution in their mouth for 5 s before swallowing it.
The sessions were individual and the subjects were asked not to eat or drink anything for at least 1 h before the test. They arrived 15 min before the start of the session in order to acclimatize to the environmental conditions, in particular the temperature of the room (kept constant at 23° C.) and to be resting seated on a comfortable chair. The 16 solutions for testing and two additional samples of water containing solely Evian water, added to the references, were presented monadically following a test order determined from a “balanced incomplete block design”. During a session, 9 samples out of 18 were presented to minimize sensory fatigue. In addition, a sample of Evian was always tested as a “blank” sample in order to avoid the first-order effect (Lawless, H. T. & Heymann, H., 2010, Sensory evaluation of food: Principles and practices. Springer, New York) and was excluded from the analysis. A light signal was sent to give the instruction to test the sample. When the disturbance to the nervous system returned to its baseline level (after approximately 1 min), a second light signal indicated to the subjects that they should complete a questionnaire regarding the stimulus tested previously. The first part of the questionnaire was linked to the identification of the taste (i.e. determining the quality of the taste); the subjects had to choose between five labels: sweet, salty, sour, bitter or neutral. They then had to assign a taste intensity score on an 11-point scale (from 0 “not intense” (i.e. taste of Evian only) to 10 “very intense”) and finally to give a hedonic score on an 11-point scale (from 0 “very unpleasant” to 10 “very pleasant”, 5 being “neutral”).
This procedure was repeated for each of the 9 stimuli. A session lasted approximately 45 min including a debriefing at the end of the test to ensure understanding of the sense of the signal variations. The experiment was repeated 12 times per subject, meaning that the data are composed of 6 data sets per subject and per product and 12 data sets for the Evian product per subject. Thus, the database consists of 432 samples.

O=C(O)CC(O)(CC(=O)O)C(=O)O [Citric acid, citric acid]
38%: Level of Recognition %: Neutral (dilution 2)
1: Individual recognition score: Bitter (Subject 1, dilution 1) | Individual recognition score: Sour (Subject 1, dilution 1) | Individual recognition score: Sweet (Subject 1, dilution 1) | Individual recognition score: Bitter (Subject 1, dilution 2) | Individual recognition score: Sour (Subject 1, dilution 2) | Individual recognition score: Sweet (Subject 2, dilution 1) | Individual recognition score: Sweet (Subject 2, dilution 2) | Individual recognition score: Sour (Subject 3, dilution 1) | Individual recognition score: Neutral (Subject 3, dilution 2) | Individual recognition score: Sour (Subject 3, dilution 2) | Individual recognition score: Sour (Subject 4, dilution 1) | Individual recognition score: Bitter (Subject 4, dilution 2) | Individual recognition score: Neutral (Subject 4, dilution 2)
6: Individual recognition score: Sour (Subject 1, dilution 3) | Individual recognition score: Sour (Subject 1, dilution 4) | Individual recognition score: Sour (Subject 2, dilution 3) | Individual recognition score: Sour (Subject 2, dilution 4) | Individual recognition score: Sour (Subject 3, dilution 3) | Individual recognition score: Sour (Subject 3, dilution 4) | Individual recognition score: Sour (Subject 4, dilution 3) | Individual recognition score: Sour (Subject 4, dilution 4)
33%: Level of Recognition %: Sour (dilution 2)
4%: Level of Recognition %: Sweet (dilution 2)
25%: Level of Recognition %: Bitter (dilution 1) | Level of Recognition %: Bitter (dilution 2)
54%: Level of Recognition %: Neutral (dilution 1)
13%: Level of Recognition %: Sour (dilution 1)
2: Individual recognition score: Sour (Subject 2, dilution 2) | Individual recognition score: Bitter (Subject 3, dilution 1) | Individual recognition score: Neutral (Subject 4, dilution 1)
3: Individual recognition score: Neutral (Subject 1, dilution 1) | Individual recognition score: Neutral (Subject 2, dilution 2) | Individual recognition score: Neutral (Subject 3, dilution 1) | Individual recognition score: Bitter (Subject 4, dilution 1)
5: Individual recognition score: Neutral (Subject 2, dilution 1)
4: Individual recognition score: Neutral (Subject 1, dilution 2) | Individual recognition score: Bitter (Subject 3, dilution 2) | Individual recognition score: Sour (Subject 4, dilution 2)
0%: Level of Recognition %: Salty (dilution 1) | Level of Recognition %: Salty (dilution 2) | Level of Recognition %: Bitter (dilution 3) | Level of Recognition %: Neutral (dilution 3) | Level of Recognition %: Salty (dilution 3) | Level of Recognition %: Sweet (dilution 3) | Level of Recognition %: Bitter (dilution 4) | Level of Recognition %: Neutral (dilution 4) | Level of Recognition %: Salty (dilution 4) | Level of Recognition %: Sweet (dilution 4)
100%: Level of Recognition %: Sour (dilution 3) | Level of Recognition %: Sour (dilution 4)
0: Individual recognition score: Salty (Subject 1, dilution 1) | Individual recognition score: Salty (Subject 1, dilution 2) | Individual recognition score: Sweet (Subject 1, dilution 2) | Individual recognition score: Bitter (Subject 1, dilution 3) | Individual recognition score: Neutral (Subject 1, dilution 3) | Individual recognition score: Salty (Subject 1, dilution 3) | Individual recognition score: Sweet (Subject 1, dilution 3) | Individual recognition score: Bitter (Subject 1, dilution 4) | Individual recognition score: Neutral (Subject 1, dilution 4) | Individual recognition score: Salty (Subject 1, dilution 4) | Individual recognition score: Sweet (Subject 1, dilution 4) | Individual recognition score: Bitter (Subject 2, dilution 1) | Individual recognition score: Salty (Subject 2, dilution 1) | Individual recognition score: Sour (Subject 2, dilution 1) | Individual recognition score: Bitter (Subject 2, dilution 2) | Individual recognition score: Salty (Subject 2, dilution 2) | Individual recognition score: Bitter (Subject 2, dilution 3) | Individual recognition score: Neutral (Subject 2, dilution 3) | Individual recognition score: Salty (Subject 2, dilution 3) | Individual recognition score: Sweet (Subject 2, dilution 3) | Individual recognition score: Bitter (Subject 2, dilution 4) | Individual recognition score: Neutral (Subject 2, dilution 4) | Individual recognition score: Salty (Subject 2, dilution 4) | Individual recognition score: Sweet (Subject 2, dilution 4) | Individual recognition score: Salty (Subject 3, dilution 1) | Individual recognition score: Sweet (Subject 3, dilution 1) | Individual recognition score: Salty (Subject 3, dilution 2) | Individual recognition score: Sweet (Subject 3, dilution 2) | Individual recognition score: Bitter (Subject 3, dilution 3) | Individual recognition score: Neutral (Subject 3, dilution 3) | Individual recognition score: Salty (Subject 3, dilution 3) | Individual recognition score: Sweet (Subject 3, dilution 3) | Individual recognition score: Bitter (Subject 3, dilution 4) | Individual recognition score: Neutral (Subject 3, dilution 4) | Individual recognition score: Salty (Subject 3, dilution 4) | Individual recognition score: Sweet (Subject 3, dilution 4) | Individual recognition score: Salty (Subject 4, dilution 1) | Individual recognition score: Sweet (Subject 4, dilution 1) | Individual recognition score: Salty (Subject 4, dilution 2) | Individual recognition score: Sweet (Subject 4, dilution 2) | Individual recognition score: Bitter (Subject 4, dilution 3) | Individual recognition score: Neutral (Subject 4, dilution 3) | Individual recognition score: Salty (Subject 4, dilution 3) | Individual recognition score: Sweet (Subject 4, dilution 3) | Individual recognition score: Bitter (Subject 4, dilution 4) | Individual recognition score: Neutral (Subject 4, dilution 4) | Individual recognition score: Salty (Subject 4, dilution 4) | Individual recognition score: Sweet (Subject 4, dilution 4)
8%: Level of Recognition %: Sweet (dilution 1)
